For data set [1] the following is noted: infusions of 800 mg, placebo-controlled crossover; cited from earlier work.
The test system of a further data set is depressive symptoms. As to conditions: 195 patients, 400 mg intramuscular for 15 days; cited from earlier work.
In a further data set the test system is Major Depression. In words: Child case studies: oral SAM-e in Major Depression (Children's Depression Inventory, clinical report). The format is in vivo, human. An excerpt:
Two girls were brought in for a consult by a pediatrician and their spouse, a nutritionist. Both parents had studied SAM-e, and preferred “a trial” before traditional anti-depressants.
Case 1. A child (34 kg.) developed increased irritability, boredom, eccentric crying, withdrawal, decreased appetite, middle insomnia, new school performance problems and sadness. They began to discuss death themes and became preoccupied with heaven, despite no new exposures to these topics. They met DSM-IV TR criteria for Major Depression, had no significant stressors in their life, and on the Children's Depression Inventory (CDI) scored a 34.
They were placed on a 200 mg SAM-e enteric-coated tablet each morning, before eating for a week. Subsequently, the dose was raised to 400 mg. […] Improvement began after 4 days on 400 mg. At three weeks, it was increased to 600 mg a day, with rapid and complete resolution of their depressive symptoms in 2 days. […] Their CDI fell to a 4. They have been on this dose for over 6 months.
Case 2. child one (24 kg.) developed new problems with crying, sadness, decreased play, and an inability to be consoled. They made new negative identity comments, i.e., “I'm no good Mommy.” The child was well liked by adults and peers, but felt “no one liked them,” They also began saying they “hated school” even though they were in the top ⅓rd of their class. Their symptoms began 4-5 months after their sibling's MD began. They met DSM-IV TR criteria for Major Depression and on the Children's Depression Inventory scored 29.
Their CDI decreased to 6 and 7. After 3 months, they were “a little sad like before” per their parent, and was increased to 200 mg each am and afternoon with a CDI of 6. They have remained on this dose for over 6 months.
Case 3. A person (86 kg.), unrelated to the girls described above, was diagnosed with Major Depression and Oppositional Defiant Disorder based on DSM-IV TR criteria from a clinical interview with parents and patient. They refused diagnostic scales. Their parents reported a 1½ year history of irritability, boredom, reactivity, decreased interest in all activities but computer games, sadness, excess sleep, fatigue, hopelessness, and trouble concentrating. […] Extensive laboratory testing and family doctor physical exam were negative.
Their mood and function improved to their baseline over 1-2 weeks according to parents, teacher and psychiatrist. Yet they had residual oppositionality. After 2-3 months the youth stopped their SAM-e due to “being sick of all the pills.” They had been taking […] tablets daily. They relapsed over the course of 3 weeks to “½” […] initial baseline depression per patient and parents. Again, they refused quantitative depression scales. Behaviorally, they stopped returning calls, became bored again, and had decreased homework performance with no identifiable new stressors. Restoring the SAM-e to three 400 mg tablets—800 mg per am and 400 after school—restored them to baseline in 5-8 days from parent report confirmed with diagnostic interview. They have remained on this dosing for approximately 22 weeks.

In data set [2] the test system is patients with Major Depression. As to conditions: cited from earlier work.
Data set [3] deals with major depressive disorder. The note with it: cited from earlier work.

Where “and” joins values, the source holds several entries; their conditions need not be identical. Equal entries are not always repeated. Where two headings read alike, the source gives them in different places.

Regarding `C[S+](CC[C@H](N)C(=O)O)C[C@H]1O[C@@H](n2cnc3c(N)ncnc32)[C@H](O)[C@@H]1O` (some centres unmarked) [SAM-e, S-adenosyl methionine], in data set [1], the “EEG / ERP antidepressant effects” value was “effects greater than placebo”. Moreover, the “effect on depressive symptoms” value with depressive symptoms was “remission on both day 7 and 15”. Moreover, the “response over 3 weeks” value in the data set on Major Depression (Case 1, oral 400 mg) was “modest improvement”. Moreover, the “time until improvement began” value with Major Depression (Case 1, oral 400 mg) is 4 days. Moreover, the side effects result in the data set with Major Depression (Case 1, oral 600 mg a day) is “no signs of mania, anxiety, insomnia, diarrhea, abdominal pain or nausea”; in the data set on Major Depression (Case 2, oral 200 mg), “no side effects”; in the data set on Major Depression (Case 3, oral 1800 mg), “slight tremor and slight anxiety”. The “time to complete resolution of depressive symptoms” value in the data set with Major Depression (Case 1, oral 600 mg a day) is 2 days. Moreover, the “Children's Depression Inventory (CDI) on treatment” value in the data set with Major Depression (Case 1, oral 600 mg a day, CDI before treatment 34) was 4; in the data set on Major Depression (Case 2, oral 200 mg each am and afternoon, after 3 months) it was 6; in the data set on Major Depression (Case 2, oral 200 mg, CDI before treatment 29), 6 and 7. Also, the “time to signs of improvement” value with Major Depression (Case 2 (person one), oral 200 mg) is recorded as 2 days. In the data set on Major Depression (Case 2, oral 200 mg), the “time until at baseline” value is listed as 11 days. Further, in the data set with Major Depression (Case 3, oral 800 mg per am and 400 after school), the “time until restored to baseline after restart” value was in the range of 5 to 8 days. Also, in the data set on Major Depression (Case 3, oral 1400 mg), the “side effects after dose reduction” value is given as “loss of both side effects”. Moreover, the “time until mood and function improved to baseline” value in the data set on Major Depression (Case 3, oral 1400 mg) was 1-2 weeks. For the same compound, the “time course of relapse after stopping SAM-e” value in the data set with Major Depression (Case 3, relapse to "½" initial baseline depression) is listed as 3 weeks. Also, the “self-reported effect on depression” value in the data set on Major Depression (both parents of Cases 1 and 2, 1200-1400 mg per day) was “full remission of their depression”. Also, the “efficacy compared with imipramine” value in data set [2] (SAM-e intramuscular 400 mg/d vs. oral IMI 150 mg/d, 4 weeks) is “did not differ significantly on any efficacy measure”; in data set [2] (intramuscular (400 mg) and oral SAM-e (1600 mg, 6 weeks) in adults), “comparable to 150 mg of imipramine (IMI)”. Besides, in data set [2] (both studies), the “tolerability compared with imipramine” value is listed as “better tolerated than IMI”. Further, the “efficacy in major depressive disorder” value in data set [3] (13 trials vs placebo, 19 trials vs tricyclic antidepressants, more than 1,400 patients) was “effective”. Also, in data set [3] (intravenous and intramuscular preparations, 14 double-blind European studies), the “efficacy in major depression versus placebo and tricyclics” value is “more effective than placebo and comparable to imipramine, amitriptyline and clomipramine”.

The values above are taken from patent publication US8263574B2, “Topical formulations for the treatment of depression with S adenosyl methionine” (priority 2004, dated 2012).
